Experimental data: patent publication US9539196B2, “Compositions comprising a SIRT6 activator and a DNA repair enzyme” (ELC Management LLC, priority 2014, dated 2017)
Like-named read-outs stand apart in the source and are kept apart here. Ends that are not written are not given here.

Assays:
[1] = system: Normal Human Epidermal Keratinocytes (NHEK); test: Comet assay of DNA fragmentation in NHEK exposed to UVB (Test Example 1); format: cell-based; conditions: FIG. 1
Method: This study used control samples and three types of test samples. Control samples were neither treated with the peptide, nor exposed to UVB radiation. Type 1 samples were treated with the peptide, as described below, but not exposed to UVB radiation. Type 2 samples were not treated with the peptide, but were exposed to UVB radiation. Type 3 samples were treated with the peptide, as described below, and exposed to UVB radiation. SIRT6 activating peptide (SEQ ID No. 1) in powdered form was prepared in solution at 50 ppm.
For all test samples, Normal Human Epidermal Keratinocytes (NHEK) were seeded on Trevigen Flare™ slides at 8,000 cells/spot for DNA fragmentation analysis. Cells were incubated at 37° C., 95% humidity and 5% CO2 in cell culture media for 24 hours. Type 1 and type 3 samples were treated with the 50 ppm powdered peptide solution at 3% of the cell culture media (equivalent to 0.00015% of peptide in solution), and all samples were incubated for 48 hours. Thereafter, the cell culture media was removed from all samples and replaced with 100 μl of Dulbecco's Phosphate Buffered Saline. […]
Following the six hour incubation, the sample cells were washed with phosphate buffered saline. […] The tail moments were analyzed with the Comet Score software from TriTek, Corp (Sumerduck, Va.). […]

sirtuin 6 = conditions: cited from earlier work; for sirtuin 6 expression: short-term cultures
SIRT6 = conditions: Normal Human Epidermal Keratinocytes (NHEK); cited from earlier work

Substance: Gly-Ala-Gly-Val-Ser-Ala-Glu-NH2 (GAGVSAE-NH2) [SEQ ID No. 1]
- DNA fragmentation (comet tail moment) ([1]; type 1 samples: NHEK treated with peptide (0.00015% in solution), not irradiated): comparable to the control samples
- DNA fragmentation (comet tail moment) ([1]; type 3 samples: NHEK pre-treated with peptide 48 h (0.00015%), 20 mJ/cm^2 UVB, post-treated 6 h): comparable to the control samples
- sirtuin 6 expression stimulation effect, long term (sirtuin 6; long term cultures): maintained for the long term
- sirtuin 6 expression (sirtuin 6; normal human fibroblasts): increase sirtuin 6 expression very significantly
- sirtuin 6 expression (sirtuin 6; normal human keratinocytes): increase sirtuin 6 expression very significantly
- SIRT6 expression (SIRT6): dose dependent increase in SIRT6 expression
